Measured values taken from the supplement of paper PMC12513837.

compound: CC(=O)N1CCc2c(c(N3CCCc4cc(-c5cnn(C)c5)c(C(F)F)cc43)nn2C2CCC(CN3CCN(c4ccc5c(c4)C(=O)N(C4CCC(=O)NC4=O)C5=O)CC3)CC2)C1 [CBPD-409]; test: AUC of viability dose-response curve (relative to vehicle, 8 doses up to 10 µM) (fraction); higher = less sensitive (more viable); extreme values may be limits of the assay
Procedure: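 PRISM multiplexed pooled barcoded cell line viability screen at the Broad Institute, 887 cancer cell lines treated with CBPD-409 (p300/CBP PROTAC degrader) at 8 concentrations in threefold dilution, top dose 10 µM. The read-out is the area under the dose-response curve of relative viability versus vehicle (n=3). AUC < 0.3 is called strongly sensitive and AUC > 0.8 resistant.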

Test System	AUC of viability dose-response curve
S117_THYROID	0.612
YD15_SALIVARY_GLAND	0.397
RERFLCMS_LUNG	0.837
SKOV3_OVARY	1
TCCPAN2_PANCREAS	0.875
CALU1_LUNG	0.901
TF1_HAEMATOPOIETIC_AND_LYMPHOID_TISSUE	0.757
MDAMB436_BREAST	0.505
WM1799_SKIN	0.639
SNU410_PANCREAS	1
SNU449_LIVER	0.947
UMUC11_URINARY_TRACT	0.736
UMUC6_URINARY_TRACT	0.585
TE10_OESOPHAGUS	0.501
HMC18_BREAST	0.932
KP4_PANCREAS	0.625
EFO27_OVARY	1
C75_LARGE_INTESTINE	1
NCIH661_LUNG	0.567
BCPAP_THYROID	0.885
NCIH1435_LUNG	1
NCIH2122_LUNG	0.654
KMS28BM_HAEMATOPOIETIC_AND_LYMPHOID_TISSUE	0.583
RERFGC1B_STOMACH	0.993
TANOUE_HAEMATOPOIETIC_AND_LYMPHOID_TISSUE	1
OCUG1_BILIARY_TRACT	1

Test System	AUC of viability dose-response curve
NCIH2009_LUNG	0.596
DMS53_LUNG	0.475
BICR16_UPPER_AERODIGESTIVE_TRACT	0.181
SCC9_UPPER_AERODIGESTIVE_TRACT	0.687
HUCCT1_BILIARY_TRACT	0.983
VMRCRCZ_KIDNEY	0.584
GCT27_TESTIS	0.696
OCILY18_HAEMATOPOIETIC_AND_LYMPHOID_TISSUE	0.451
U118MG_CENTRAL_NERVOUS_SYSTEM	0.983
ICC12_BILIARY_TRACT	1
RBE_BILIARY_TRACT	1
SW1271_LUNG	0.564
NZOV9_OVARY	1
EB1_HAEMATOPOIETIC_AND_LYMPHOID_TISSUE	1
CAL78_BONE	0.486
HEL9217_HAEMATOPOIETIC_AND_LYMPHOID_TISSUE	0.229
BFTC905_URINARY_TRACT	0.443
SKNMC_BONE	0.996
SQ1_LUNG	1
WM793_SKIN	0.949
CFPAC1_PANCREAS	1
143B_BONE	1
HTMMT_ENDOMETRIUM	0.65
HEC151_ENDOMETRIUM	1
RT112_URINARY_TRACT	0.83
KYSE70_OESOPHAGUS	1
